pIC50: −log10 of the molar value.
What was measured:
ruminal microbial urease = assay: Urease inhibition assay (Berthelot alkaline phenol-hypochlorite method); assay type: biochemical, rumen bacteria of Chinese Holstein dairy cows
Experimental: Rumen fluid samples were collected from five Chinese Holstein dairy cows with permanent rumen fistula 3 h after feeding a total mixed ration in the morning. All the operations were conducted in accordance with the protocol approved by the Animal Care and Use Committee for Livestock of the Institute of Animal Sciences, Chinese Academy of Agricultural Sciences (Permit Number: IAS2019-14, Permit Date: 22-03-2019). All rumen fluid samples were filtered by a six layer sterilized medical gauze and mixed in a sterilized beaker before being evenly distributed into different 50 mL tubes and stored in liquid nitrogen. The deforested samples were centrifuged at 12,000× g for 10 min at 4 °C, then the supernatant was removed from the tube. The remaining sediments were resuspended in a HEPES buffer solution (pH 7.5, 50 mM) and then centrifuged at 12,000× g for 10 min at 4 °C. The supernatant was discarded and the remaining rumen bacteria were collected and stored at −80 °C for later urease extraction. All the sample handing processes were conducted on an ice bath. […]
In vitro urease inhibition screening assays were conducted to further narrow the virtual screened compounds for further IC50 determination and kinetic characterization. […] The ammonia that was produced was measured using 50 μL of a phenol reagent containing 10.0 g/L phenol and 50 mg/L of sodium nitroprusside, and 50 μL of alkali reagent containing 5 g/L sodium hydroxide and 8.4 mL/L of sodium hypochlorite solution, at 37 °C for 30 min. The absorbance of each well was measured at 625 nm by a micro plate spectrophotometer (Thermo Scientific Varioskan Flash G-282, Thermo Scientific, Waltham, MA, USA). The endogenous nitrogen (blank) was measured by adding a 70 μL HEPES buffer (pH 7.5, 50 mM) containing no urea and 20 μL methanol solution in the first 30 min of the reaction mixture. The 100% initial activity was determined by adding a 15 μL methanol solution in the first 30 min of the reaction mixture. […]

ruminal microbiota = assay: Chemical degradation rate of compound in ruminal microbial fermentation (UPLC-HRMS); details: 100 μM
Experimental: The generation fermentation experiments were performed in anaerobic tubes containing 5 mL of an anaerobic medium, and in total, six generations of fermentation were performed. Altogether 54 tubes were prepared with nine tubes for each generation of fermentation. […] For the AHA treated group, the AHA working solution was prepared by diluting 3.76 mg AHA with 10 mL of methanol (5000 μM AHA). […] For the control group, the working solution contained only the solvent (methanol). All the working solutions were filtered by 0.22 μm of a membrane filter (Millipore Express PES Membrane, MILLEX GP). For each group, 100 µL of the working solution was added to each tube to mix with the anaerobic medium. […] Before the inoculation of each tube in each generation with fresh rumen fluid, 100 µL of the anaerobic urea solution was extracted from the anaerobic bottle using a syringe and filtered through 0.22 μm membrane filters, and then injected to the anaerobic tube to make the urea concentration at 16.65 mM in the tube. […] The NH4-N and Urea-N concentration was measured by the Berthelot alkaline phenol-hypochlorite method and the diacetyl monoxime method kit (Nanjing Jiancheng Co., Nanjing, China) following the manufacturer’s protocol. […]

In the case of COc1ccc(-c2ccc(CCC(=O)O)n2NC(N)=O)cc1 [6238-0047, 3-[1-[(aminocarbonyl)amino]-5-(4-methoxyphenyl)-1H-pyrrol-2-yl] propanoic acid], the “Percentage of inhibition against ruminal microbial urease” value (ruminal microbial urease; 0.5 mM compound, compared with other candidate compounds) was “superior ruminal microbial urease inhibition capacity”, the pIC50 (ruminal microbial urease; ruminal microbial urease, 37 °C, 30 min, pH 7.5) was 4.18 and the “24 h degradation rate” value (ruminal microbiota; first-generation ruminal microbial culture) was 3.32%. For the same molecule, the “24 h degradation rate” value (ruminal microbiota; sixth generation ruminal microbial culture) was 16.00%.
